Data: ChEMBL document CHEMBL1926539, “Discovery of novel selective inhibitors of Staphylococcus aureus β-ketoacyl acyl carrier protein synthase III” (Eur J Med Chem, 2012)
≈ marks a conversion by molar mass, not a printed value.

Assays:
Escherichia coli = assay: Antimicrobial activity against Escherichia coli KCTC 1682 after 20 hrs by 2 fold serial broth dilution method; format: functional; conditions: KCTC 1682, 20 h
Enterococcus faecalis = assay: Antimicrobial activity against Enterococcus faecalis KCTC 2011 after 20 hrs by 2 fold serial broth dilution method; format: functional; conditions: KCTC 2011, 20 h
Enterococcus faecium = assay: Antimicrobial activity against vancomycin-resistant Enterococcus faecium clinical isolate after 20 hrs by 2 fold serial broth dilution method; format: functional
Staphylococcus aureus [1] = assay: Antimicrobial activity against Staphylococcus aureus KCTC 1621 after 20 hrs by 2 fold serial broth dilution method; format: functional; conditions: KCTC 1621, 20 h
Staphylococcus aureus [2] = assay: Antimicrobial activity against methicillin-resistant Staphylococcus aureus CCARM 3114 after 20 hrs by 2 fold serial broth dilution method; format: functional; conditions: CCARM 3114, 20 h
[3] = Inhibition of Staphylococcus aureus recombinant GST-tagged KAS3 expressed in Escherichia coli (DE3) at 1:10 protein to drug ratio by fluorescence quenching analysis
[4] = Cytotoxicity against mouse NIH/3T3 cells assessed as cell survival at 100 nM after 24 hrs by MTT assay; format: cell-based, NIH3T3; conditions: read-out: Activity
NIH3T3 [5] = assay: Cytotoxicity against mouse NIH/3T3 cells after 24 hrs by MTT assay; format: cell-based; conditions: NIH3T3, 24 h
NIH3T3 [6] = assay: Cytotoxicity against mouse NIH/3T3 assessed as cell survival at MIC after 24 hrs by MTT assay; format: cell-based; conditions: nih3t3, 24 h

## CCOC(=O)/C(C#N)=C/c1ccc(O)cc1O
Escherichia coli
  MIC: > 512 mg/L
Enterococcus faecalis
  MIC: 256 mg/L (≈ 1100 µM)
Enterococcus faecium
  MIC: > 512 mg/L
Staphylococcus aureus [1]
  MIC: > 512 mg/L
Staphylococcus aureus [2]
  MIC: 256 mg/L (≈ 1100 µM)
[3]
  Kd: 44 µM

## Cc1nc(CC(=O)c2c(C)cc(O)cc2O)cs1
Escherichia coli
  MIC: > 512 mg/L
Enterococcus faecalis
  MIC: > 512 mg/L
Enterococcus faecium
  MIC: > 512 mg/L
Staphylococcus aureus [1]
  MIC: > 512 mg/L
Staphylococcus aureus [2]
  MIC: > 512 mg/L
[3]
  Kd: > 1000 µM

## Nc1ccc(NC(=O)NC2CCCCC2)cc1[N+](=O)[O-]
Escherichia coli
  MIC: > 512 mg/L
Enterococcus faecalis
  MIC: 128 mg/L (≈ 460 µM)
Enterococcus faecium
  MIC: 256 mg/L (≈ 920 µM)
Staphylococcus aureus [1]
  MIC: > 512 mg/L
Staphylococcus aureus [2]
  MIC: > 512 mg/L
[3]
  Kd: 649 µM

## NC(=O)C1(C(N)=O)OC1c1ccc(Cl)c(Cl)c1 (stereo not given)
Escherichia coli
  MIC: 256 mg/L (≈ 931 µM)
Enterococcus faecalis
  MIC: 256 mg/L (≈ 931 µM)
Enterococcus faecium
  MIC: 32 mg/L (≈ 116 µM)
Staphylococcus aureus [1]
  MIC: 256 mg/L (≈ 931 µM)
Staphylococcus aureus [2]
  MIC: 256 mg/L (≈ 931 µM)
[3]
  Kd: > 1000 µM

## CCCCCC12CCC(O)(CC1)CC2O (stereo not given)
Escherichia coli
  MIC: > 512 mg/L
Enterococcus faecalis
  MIC: > 512 mg/L
Enterococcus faecium
  MIC: > 512 mg/L
Staphylococcus aureus [1]
  MIC: > 512 mg/L
Staphylococcus aureus [2]
  MIC: > 512 mg/L
[3]
  Kd: > 1000 µM

## COc1ccccc1NC(=O)c1nc[nH]n1
Escherichia coli
  MIC: > 512 mg/L
Enterococcus faecalis
  MIC: > 512 mg/L
Enterococcus faecium
  MIC: > 512 mg/L
Staphylococcus aureus [1]
  MIC: > 512 mg/L
Staphylococcus aureus [2]
  MIC: > 512 mg/L
[3]
  Kd: 34.1 µM

## Oc1ccc(/C=N/Nc2ccc(C(F)(F)F)cn2)c(O)c1
Escherichia coli
  MIC: 512 mg/L (≈ 1720 µM)
Enterococcus faecalis
  MIC: 64 mg/L (≈ 215 µM)
Enterococcus faecium
  MIC: 32 mg/L (≈ 108 µM)
Staphylococcus aureus [1]
  MIC: 2 mg/L (≈ 6.73 µM)
Staphylococcus aureus [2]
  MIC: 4 mg/L (≈ 13.5 µM)
[3]
  Kd: 0.0008 µM
[4]
  viability at 24 h, 0.1 µM: 67%

## Cc1cccc(NC(=O)CC2SC(=O)NC2=O)c1 (stereo not given)
Escherichia coli
  MIC: > 512 mg/L
Enterococcus faecalis
  MIC: > 512 mg/L
Enterococcus faecium
  MIC: > 512 mg/L
Staphylococcus aureus [1]
  MIC: > 512 mg/L
Staphylococcus aureus [2]
  MIC: > 512 mg/L
[3]
  Kd: > 1000 µM

## OC[C@@H]1O[C@H](Oc2cccc(Cl)c2)[C@H](O)[C@H](O)[C@H]1O
Escherichia coli
  MIC: > 512 mg/L
Enterococcus faecalis
  MIC: > 512 mg/L
Enterococcus faecium
  MIC: 256 mg/L (≈ 881 µM)
Staphylococcus aureus [1]
  MIC: > 512 mg/L
Staphylococcus aureus [2]
  MIC: > 512 mg/L
[3]
  Kd: 0.36 µM

## O=[N+]([O-])c1ccccc1N/N=C/c1ccc(O)c(O)c1
Escherichia coli
  MIC: > 512 mg/L
Enterococcus faecalis
  MIC: 256 mg/L (≈ 937 µM)
Enterococcus faecium
  MIC: 256 mg/L (≈ 937 µM)
Staphylococcus aureus [1]
  MIC: > 512 mg/L
Staphylococcus aureus [2]
  MIC: > 512 mg/L
[3]
  Kd: 3.18 µM

## Oc1ccc(/C=N/c2ccc(Cl)cc2Cl)c(O)c1
Escherichia coli
  MIC: 64 mg/L (≈ 227 µM)
Enterococcus faecalis
  MIC: > 512 mg/L
Enterococcus faecium
  MIC: > 512 mg/L
Staphylococcus aureus [1]
  MIC: 128 mg/L (≈ 454 µM)
Staphylococcus aureus [2]
  MIC: 128 mg/L (≈ 454 µM)
[3]
  Kd: 0.72 µM

## Oc1ccc(/C=N/c2cc(Cl)cc(Cl)c2)c(O)c1
Escherichia coli
  MIC: 64 mg/L (≈ 227 µM)
Enterococcus faecalis
  MIC: 512 mg/L (≈ 1810 µM)
Enterococcus faecium
  MIC: > 512 mg/L
Staphylococcus aureus [1]
  MIC: 64 mg/L (≈ 227 µM)
Staphylococcus aureus [2]
  MIC: 128 mg/L (≈ 454 µM)
[3]
  Kd: 0.61 µM

## O=C(N/N=C/c1ccc(O)c(O)c1O)c1ccc(Cl)cc1Cl
Escherichia coli
  MIC: 64 mg/L (≈ 188 µM)
Enterococcus faecalis
  MIC: 32 mg/L (≈ 93.8 µM)
Enterococcus faecium
  MIC: 32 mg/L (≈ 93.8 µM)
Staphylococcus aureus [1]
  MIC: 4 mg/L (≈ 11.7 µM)
Staphylococcus aureus [2]
  MIC: 4 mg/L (≈ 11.7 µM)
[3]
  Kd: 0.0072 µM
NIH3T3 [5]
  IC50: 10.9 µM
NIH3T3 [6]
  Activity: Non-toxic

## Cc1nc2ccccc2c(=O)n1/N=C/c1ccc(O)cc1O
Escherichia coli
  MIC: > 512 mg/L
Enterococcus faecalis
  MIC: > 512 mg/L
Enterococcus faecium
  MIC: > 512 mg/L
Staphylococcus aureus [1]
  MIC: > 512 mg/L
Staphylococcus aureus [2]
  MIC: > 512 mg/L
[3]
  Kd: 0.0009 µM

## Oc1ccc(/C=N/Nc2nccnc2Cl)c(O)c1
Escherichia coli
  MIC: > 512 mg/L
Enterococcus faecalis
  MIC: > 512 mg/L
Enterococcus faecium
  MIC: 32 mg/L (≈ 121 µM)
Staphylococcus aureus [1]
  MIC: 1 mg/L (≈ 3.78 µM)
Staphylococcus aureus [2]
  MIC: 1 mg/L (≈ 3.78 µM)
[3]
  Kd: 0.0003 µM
NIH3T3 [5]
  IC50: 10.3 µM
NIH3T3 [6]
  Activity: Non-toxic

## Cc1n[nH]c(C)c1CCC(=O)N/N=C/c1ccc(O)cc1O
Escherichia coli
  MIC: 256 mg/L (≈ 847 µM)
Enterococcus faecalis
  MIC: > 512 mg/L
Enterococcus faecium
  MIC: > 512 mg/L
Staphylococcus aureus [1]
  MIC: 128 mg/L (≈ 423 µM)
Staphylococcus aureus [2]
  MIC: 128 mg/L (≈ 423 µM)
[3]
  Kd: 0.23 µM

## CCOC(=O)N/N=C/c1ccc(O)cc1O
Escherichia coli
  MIC: > 512 mg/L
Enterococcus faecalis
  MIC: > 512 mg/L
Enterococcus faecium
  MIC: 256 mg/L (≈ 1140 µM)
Staphylococcus aureus [1]
  MIC: 256 mg/L (≈ 1140 µM)
Staphylococcus aureus [2]
  MIC: 512 mg/L (≈ 2280 µM)
[3]
  Kd: 1.48 µM

## C=C/C(C)=C/[C@@]1(C)SC(=O)C(C)=C1O [THIOLACTOMYCIN]
Enterococcus faecium
  MIC: 128 mg/L (≈ 609 µM)
[3]
  Kd: 55.4 µM
[4]
  viability at 24 h, 0.1 µM: 85%
